Tested on: V-79 cells
Test: PCI cell killing by bleomycin, cell survival by MTT assay
Assay type: cell-based, Chinese hamster
Conditions: light before
Protocol: The Chinese hamster lung fibroblast cell line V-79 was used in this study.
The cells (75 000 cells/well, 1 ml/well) were seeded into 12-well plates (Costar Corning, N.Y., USA) and allowed to attach for 6 h. To some of the wells 1 ml medium with 0.7 μg/ml TPPS2a was added (see Table 1), and the cells were incubated for 18 h (5% v/v CO2, 37° C.) The cells were washed three times with medium. The cells were then incubated in serum-containing medium for 4 h. The medium was removed, new medium was added and the cells were illuminated by exposure to light from a box containing a bank of four fluorescent tubes (Osram 18W/67) with the highest fluence around 420 nm.
Different doses of bleomycin were immediately added. After 1 or 4 h incubation with bleomycin the cells were washed once with RPMI-medium, 1 ml of medium was added and after 3 days of incubation cell survival was measured by the MTT assay. This method is based on reduction of a water-soluble tetrazolium salt (MTT) to a purple, insoluble formazan product by mitochondrial dehydrogenases present in living, metabolically active cells. […] The solution is transferred to a 96 wells plate which is read by a Multiskan EX microplate reader (Labsystems, Finland) with a 570 nm bandpass filter. Cell survival is calculated as percent of control cells not receiving light treatment.

Substance: bleomycin
- light-induced effect on cytotoxicity (cell survival, MTT) (100 μM bleomycin, 1 or 4 h, with 0.7 μg/ml TPPS2a): substantial light-induced increase in the cytotoxicity
- light-induced effect on cell survival (MTT) (lowest dose of bleomycin (5 μM, 1 h), with TPPS2a): lack of effect

From patent publication US8008077B2, “Photochemical internalization for delivery of molecules into the cytosol” (priority 2000, dated 2011)
